Measured values: US4439603A, “Anthracycline derivatives of β-rhodomycinone glycosides” (Sanraku-Ocean Co., Ltd., priority 1981, dated 1984)
Converted amounts (≈) assume the structure as drawn.

Experiments:
[1] = system: L1210 leukemia cells; assay: Growth inhibition of cultured mouse leukemia L1210 cells (48 hours, viable cell count); format: cell-based; conditions: for antitumor effect on L1210 leukemia cells: result in words; for IC50: Mus musculus, L1210, 48 h, read-out: 50% Inhibitory concentration, Growth inhibition after 48 hours
Description: The L1210 cells were cultivated at 37° C. overnight and transferred to RPMI (Roswell Park Memorial Institute) 1640 medium containing 20% calf serum at their exponential growth phase so as to give a cell concentration of 4×10^4 cells/ml. The compounds of the present invention were added to the medium at a concentration of 0.01-0.25 μg/ml. Incubation was performed in a CO2 -incubator at 37° C. for 2 days and then the number of viable cells was counted.
(§1) Independently of the above-mentioned experiment, the compounds of the present invention were added to an about 5×10^5 cells/ml L1210 cell suspension in RPMI 1640 medium containing 10% calf serum at a concentration of 0.02-2.5 μg/ml. After 15 minutes, ^14 -C-uridine (0.05 μCi/ml) or ^14 C-thymidine (0.05 μCi/ml) was added to the suspension and pulse-labeling was carried out at 37° C. for 60 minutes. The reaction was stopped by addition of a cold 10% trichloroacetic acid solution and an acid-insoluble fraction was precipitated. The precipitate was washed with a cold 5% trichloroacetic acid and the radioactivity was measured.

[2] = system: L1210 cells, DNA synthesis; assay: Inhibition of DNA synthesis (14C-thymidine incorporation) in L1210 cells; format: cell-based, mouse; conditions: RPMI 1640 with 10% calf serum, pulse-labeling 60 minutes at 37° C.; for IC50: Mus musculus, L1210, 1 h, read-out: 50% Inhibitory concentration, 14C-Thymidine (Inhibition of DNA synthesis)
Description: as §1

[3] = system: L1210 cells, RNA synthesis; assay: Inhibition of RNA synthesis (14C-uridine incorporation) in L1210 cells; format: cell-based, mouse; conditions: RPMI 1640 with 10% calf serum, pulse-labeling 60 minutes at 37° C.; for IC50: Mus musculus, L1210, 1 h, read-out: 50% Inhibitory concentration, 14C-Uridine (Inhibition of RNA synthesis)
Description: as §1

[4] = system: mice; assay: Acute toxicity in mice upon a single intraabdominal injection; format: in vivo
[5] = Solubility; format: physicochemical
Description: Solubilities of the compounds of the present invention, β-rhodomycinone-RDA, -RDRs, and -RD are similar. […] The color of the solutions, when they are dissolved, is red or reddish yellow, which is changed to violet in alkaline solution.

[6] = Acute toxicity in mice upon a single intraabdominal injection; format: in vivo; conditions: mouse, in vivo, ip
[7] = L1210 cells, RPMI 1640 with 20% calf serum, 37° C., 48 hours
[8] = in acidic water, methanol, ethanol, n-butanol, acetone, ethyl acetate, chloroform, benzene, toluene, dimethylsulfoxide and methyl cellosolve

Compound	50% Inhibitory concentration, Growth inhibition after 48 hours [1, 7]	antitumor effect on L1210 leukemia cells [1]	50% Inhibitory concentration, 14C-Thymidine (Inhibition of DNA synthesis) [2]	50% Inhibitory concentration, 14C-Uridine (Inhibition of RNA synthesis) [3]	acute toxicity (LD50 value) [4]	Solubility [5, 8]	Solubility ([5]; in water, ether and n-hexane)	IC50 [1, 7]	IC50 [2]	IC50 [3]	LD50 [6]
CCC1(O)CC(OC2CC(N(C)C)C(OC3CC(O)C(OC4CCC(O)C(C)O4)C(C)O3)C(C)O2)c2c(O)c3c(c(O)c2C1O)C(=O)c1cccc(O)c1C3=O (stereo not drawn) [β-Rhodomycinone-RDRs]	0.016 µg/mL	have an antitumor effect on L1210 leukemia cells	0.54 µg/mL	0.085 µg/mL	35.3 mg/kg	soluble	slightly soluble				
CCC1(O)CC(OC2CC(N(C)C)C(OC3CC(O)C(OC4CCC(O)C(C)O4)C(C)O3)C(C)O2)c2c(O)c3c(c(O)c2C1O)C(=O)c1cccc(O)c1C3=O (stereo not drawn) [β-Rhodomycinone-RDA]		have an antitumor effect on L1210 leukemia cells				soluble	slightly soluble	0.028 µg/mL (≈ 0.0355 µM)	0.52 µg/mL (≈ 0.66 µM)	0.095 µg/mL (≈ 0.121 µM)	40.6 mg/kg
CCC1(O)CC(OC2CC(N(C)C)C(OC3CC(O)C(O)C(C)O3)C(C)O2)c2c(O)c3c(c(O)c2C1O)C(=O)c1cccc(O)c1C3=O (stereo not drawn) [β-Rhodomycinone-RD]		have an antitumor effect on L1210 leukemia cells				soluble	slightly soluble	0.01 µg/mL (≈ 0.0148 µM)	0.36 µg/mL (≈ 0.534 µM)	0.13 µg/mL (≈ 0.193 µM)	25.5 mg/kg
CCC1(O)CC(OC2CC(N(C)C)C(OC3CC(O)C(OC4CCC(=O)C(C)O4)C(C)O3)C(C)O2)c2c(O)c3c(c(O)c2C1O)C(=O)c1cccc(O)c1C3=O (stereo not drawn) [β-Rhodomycinone-RDC, reference compound]								0.01 µg/mL (≈ 0.0127 µM)	0.45 µg/mL (≈ 0.573 µM)	0.07 µg/mL (≈ 0.0891 µM)	
